In patent publication US8124657B2, “Metallofullerols and their applications for preparation of medicine for inhibition of tumor growth” (Institute of High Energy Physics Chinese Academy of Sciences, priority 2005, dated 2012):
Marks after values point to notes of the source that are not given here.

Tests used:
[1] = test system: MCF-7 human breast carcinoma
Protocol: Athymic BALB/c nu/nu female mice (weighing 16.0±1.0 g) were acclimated in the controlled environment (22±1° C. in temperature, 60±10% in humidity and a 12 h light/dark cycle) with free access to sterile distilled water and commercial laboratory complete food containing no pathogens. All animal experiments were performed in compliance with local ethics committee. The human beast cancer MCF-7 cell line was provided by the Cancer Institute and Cancer Hospital, Chinese Academy of Medical Sciences. The tumor bearing nude mice (female) were randomly divided into three groups, twelve in each group. […] A currently used clinical antitumor agent, Paclitaxel, was used as the positive control. Paclitaxel was given 4 times at intervals of 3 days at the dose of 10 mg/kg; when it was not injected, saline solution was injected instead of it. 0.9% saline solution was used as a negative control in the antitumor experiment. The whole administration process lasted 14 days after the starting point. The body weight and tumor size were used as two basic parameters in the experiments, and tumor growth and body weight curve were prepared as a function of time. Tumor weight was calculated according to the formula: Tumor weight (mg)=length (mm)×(width (mm))^2/2.

H22 hepatoma = experiment: Antitumor activity on murine H22 hepatoma implanted subcutaneously in Kunming mice; assay type: in vivo; details: for Tumor Weight: mean±SEM
Protocol: Antitumor studies of hydroxylated metallofullerene nanoparticles were performed on Kunming mice (female, adult, 4 weeks at the start of the experiment, body weight ranging from 20 to 22 g). The mice were subcutaneously implanted with 1×10^6 cells of H22 hepatoma (in 100 μl of saline) in each mouse at the right hind leg. Primary tumors (before administration of antitumor agents) were measured with calipers. The end point of the experiment was determined by the diameter of their leg loaded with tumor up to 2 or 2.2 centimeters. The size of tumor was monitored by daily measurement. Tumor growth curve was obtained by the diameter of the tumor as a function of the time.
The 40 mice of weight ranging from 20 to 22 g were randomly divided into 6 groups. The tumor-bearing mice were then systemically treated with hydroxylated metallofullerene nanoparticles saline solution by intraperitoneal injections once a day. Two doses of hydroxylated metallofullerene nanoparticles, 114 and 228 μg/kg corresponding to 1×10^−7 and 2×10^−7 mol/kg, respectively, were used in the experiment. The currently clinic antineoplastic agent CTX was used for the positive control, with a dose 30 mg/kg (1×10^−4 mol/kg, MW 279.1) of the currently clinic use for cancer therapy. Because of its side effects, treatments by 1×10^−4 and 5×10^−[…] of CTX continued for the first 7 days. Each mouse was administrated intraperitoneally (i.p.) a single dose of 0.2 ml per day from the second day of inoculation and continued to the day before sacrifice. The change of the tumor size was precisely measured every 24 hours.
Table 1 is the tumor weights (mean±SEM, Table 1) from 5-7 mice in each group. FIG. 1 is the Inhibition curve of hepatoma growth in mice by treatment with metallofullerol nanoparticles in two independent experiments. The growth of tumor size was monitored through measuring the diameter of the tumor every 24 hours. Tumor volumes were then calculated according to the formula: V=4πr^3/3. Tumor growth curve was obtained by the diameter of the tumor.

[2] = test system: H22 hepatoma tumor tissues; experiment: HE staining of tumor tissues of H22 tumor-bearing mice; assay type: in vivo
Text: The tumor morphology of HE staining of paraffin-embedded sections of tumor tissues in nanoparticle-treated, CTX-treated and the control groups, are shown in FIG. 9. In the saline control group, tumor cells heavily proliferated, arrayed regularly, and grievously invaded surrounding musculature (FIGS. 9A and B). […] When […] H22 liver tumors developed subcutaneously in mice, the envelope surrounding the neoplastic tissues, mainly composed of capillary vessels, fibrosis and lymphadenoid tissues were formed (FIG. 9C). […] In the [Gd@C82(OH)22]n-treated groups, lymphocyte hyperplasia (lymphopoiesis) and aggregated follicles around the transplanted tumor tissues were clearly seen (FIG. 9C). But in the CTX-treated mice, this envelope of fibroblasts associated with sporadic neutrophil cells was small so that it could not completely enclose the entire tumor tissues. Unlike in groups of the nanoparticle-treatment, the tumor invasion into surrounding normal muscle cells still existed in the CTX-treatment groups; although necrosis of tumor tissue was observed (FIGS. 9E and F).

[3] = Serum liver and kidney function markers in H22 tumor-bearing mice; assay type: in vivo
Protocol: In another aspect, the invention of hydrolated metallofullerene nanoparticles low toxicity in vivo. Liver function was evaluated with serum levels of total bilirubin levels (TBIL), alanine aminotransferase (ALT) and aspartate aminotransferase (AST). Nephrotoxicity was determined by blood urea nitrogen (BUN) and creatinine (Cr). For instance, the ALT levels of saline-treated groups are almost 4 times of the normal mean value. These indicate that implantation of H22 hepatoma itself in mice has harmed the functions of liver and kidney before treatments. […] After nanoparticle-treatment, the activities of ALT and AST (P<0.01) are reduced by 40% compared with saline control.
Table 2 is the serum TBIL, ALT, AST, and creatinine levels in tumor-bearing mice associated with metallofullerol treatment.

[4] = Dosage I (Low): CTX 5 × 10^−5 mol/kg/day i.p., n = 6
[5] = Dosage II (High): CTX 1 × 10^−4 mol/kg/day i.p., n = 11

SMILES	Mortality of mice ([1]; MCF-7 tumor-bearing nude mice under treatment)	Inhibition Efficiency (H22 hepatoma; [4])	Tumor Weight (H22 hepatoma; [4])	Inhibition Efficiency (H22 hepatoma; [5])	Tumor Weight (H22 hepatoma; [5])	Immune responses in tumor tissues (HE staining) [2]	Tumor necrosis in HE-stained tumor sections [2]	Inhibition Efficiency ([1]; CTX 71.6 μmol/kg/day, N = 10, nude mice)	Change of serum ALT versus saline ([3]; CTX-treated)	Serum ALT ([3]; high dose group)	Serum AST ([3]; high dose group)	Serum Creatinine ([3]; high dose group)	Serum TBIL ([3]; high dose group)	Change of serum concentrations of TBIL, BUN and Cr ([3]; i.p. injections)
CC(=O)O[C@H]1C(=O)[C@@]2(C)[C@H]([C@H](OC(=O)c3ccccc3)[C@]3(O)C[C@H](OC(=O)[C@H](O)[C@@H](NC(=O)c4ccccc4)c4ccccc4)C(C)=C1C3(C)C)[C@]1(OC(C)=O)CO[C@@H]1C[C@@H]2O [Paclitaxel]	16.7%	–	–	–	–	–	–	–	–	–	–	–	–	–
O=P1(N(CCCl)CCCl)NCCCO1 (centres unmarked) [CTX]	–	52.0%	1.80 ± 0.41 g	67.5%	1.22 ± 0.86 g	not observed	evidently induced tumor necrosis	47.0%	not reduced, but even slightly increased	152.2 ± 71.5 IU/L	337 ± 53.7 ^a IU/L	51.0 ± 3.3 µmol/L	1.66 ± 0.59 µmol/L	do not significantly changed
